Data from patent US4983608A, “N-substituted-4-pyrimidinamines and pyrimidinediamines” (Hoechst-Roussell Pharmaceuticals, Inc., priority 1989, dated 1991).

Key:
Assay type in all cases: in vivo
[1] = tested on: phenyl-para-quinone writhing; experiment: phenyl-para-quinone writhing assay in mice (analgesia); details: Mus musculus, sc, 20 mg/kg s.c., read-out: Analgesic Activity % Inhibition of Writhing at a Screening Dose of 20 mg/kg s.c.
Experimental: Exptl. Biol. Med., 95, 729 (1957)]. Presented in Table I is the analgesic effect of some of the compounds of the invention, expressed as the percent decrease in writhing at a given dose (20 mg/kg s.c.).

[2] = tested on: Scopolamine Induced Memory Deficit; experiment: Dark Avoidance Assay (reversal of scopolamine induced memory deficit); details: mice, retest after 24 hours
Experimental: The N-substituted-4-pyrimidinamines and pyrimidinediamines of the present invention are also useful in the treatment of various memory dysfunctions such as Alzheimer's disease.
In this assay, mice are tested for their ability to remember an unpleasant stimulus for a period of 24 hours. A mouse is placed in a chamber that contains a dark compartment; a strong incandescent light drives it to the dark compartment, where an electric shock is administered through metal plates on the floor. The animal is removed from the testing apparatus and tested again, 24 hours later, for the ability to remember the electric shock.
If scopolamine, an anticholinergic that is known to cause memory impairment is administered before an animal's initial exposure to the test chamber, the animal re-enters the dark compartment shortly after being placed in the test chamber 24 hours later. This effect of scopolamine is blocked by an active test compound, resulting in a greater interval before re-entry into the dark compartment.
The results for an active compound are expressed as the percent of a group of animals in which the effect of scopolamine is blocked, as manifested by an increased interval between being placed in the test chamber and re-entering the dark compartment.

[3] = tested on: phenyl-para-quinone writhing; experiment: phenyl-para-quinone writhing assay in mice (analgesia); details: 3.9 mg/kg s.c. (standard)

Row | SMILES | inhibition in vivo at 20 mg/kg [1] [%] | other results
1 | Cc1cn(Nc2cc(Cl)ncn2)c2ccccc12 [6-Chloro-N-(3-methyl-1H-indol-1-yl)-4-pyrimidinamine] | 45 | % of Animals with Scopolamine Induced Memory Deficit Reversed ([2]; 1.25 mg/kg s.c. by body weight): 33%
2 | CN(c1ccnc(Cl)n1)n1cccc1 [2-Chloro-N-methyl-N-(1H-pyrrol-1-yl)-4-pyrimidinamine] | 38 | 
3 | CCCN(c1ncncc1C#N)n1ccc2ccccc21 [5-Cyano-N-(1H-indol-1-yl)-N-propyl-4-pyrimidinamine] | 75 | 
4 | CCCN(c1cc(Cl)ncn1)n1cc(C)c2ccccc21 [6-Chloro-N-(3-methyl-1H-indol-1-yl)-N-propyl-4-pyrimidinamine] | 36 | 
5 | N#Cc1cncnc1Nn1ccc2ccccc21 [5-Cyano-N-(1H-indol-1-yl)-4-pyrimidinamine] | 44 | % of Animals with Scopolamine Induced Memory Deficit Reversed ([2]; 1.25 mg/kg s.c. by body weight): 27%
6 | CCCN(c1ccncn1)n1ccc2ccccc21 [N-(1H-Indol-1-yl)-N-propyl-4-pyrimidinamine] | 58 | % of Animals with Scopolamine Induced Memory Deficit Reversed ([2]; 1.25 mg/kg s.c. by body weight): 27%
7 | CN(c1cc(Cl)ncn1)n1cccc1 [6-Chloro-N-methyl-N-(1H-pyrrol-1-yl)-4-pyrimidinamine] | 42 | 
8 | c1ccc2c(c1)c1ccccc1n2Nc1ccncn1 [N-(pyrimidin-4-yl)-9H-carbazol-9-amine, N-(Pyrimidin-4-yl)-9H-carbazol-9-amine] | 65 | 
9 | CC[C@@H]1C(=O)OC[C@@H]1Cc1cncn1C [Pilocarpine, reference compound] |  | % of Animals with Scopolamine Induced Memory Deficit Reversed ([2]; 5.00 mg/kg s.c. by body weight (standard)): 23%
10 | CCCN(c1cc(Cl)ncn1)n1ccc2ccccc21 [6-Chloro-N-(1H-indol-1-yl)-N-propyl-4-pyrimidinamine] | 40 | % of Animals with Scopolamine Induced Memory Deficit Reversed ([2]; 1.25 mg/kg s.c. by body weight): 47%
11 | Clc1cc(Nn2cccc2)ncn1 [6-Chloro-N-(1H-pyrrol-1-yl)-4-pyrimidinamine] | 39 | 
12 | CCCN(c1ccncn1)n1cc(C)c2ccccc21 [N-(3-methyl-1H-indol-1-yl)-N-propyl-4-pyrimidinamine] | 60 | 
13 | Cc1cn(Nc2cc(Nn3cc(C)c4ccccc43)ncn2)c2ccccc12 [N,N'-bis(3-methyl-1H-indol-1-yl)-4,6-pyrimidinediamine] | 33 | 
14 | Cc1cn(Nc2ccncn2)c2ccccc12 [N-(3-methyl-1H-indol-1-yl)-4-pyrimidinamine] |  | % of Animals with Scopolamine Induced Memory Deficit Reversed ([2]; 1.25 mg/kg s.c. by body weight): 20%
15 | CCCN(c1cc(Cl)ncn1)n1cccc1 [6-Chloro-N-propyl-N-(1H-pyrrol-1-yl)-4-pyrimidinamine] | 46 | 
16 | c1ccn(Nc2ccncn2)c1 [N-(1H-pyrrol-1-yl)-4-pyrimidinamine, N-(1H-Pyrrol-1-yl)-4-pyrimidinamine] | 30 | 
17 | CCC(=O)O[C@](Cc1ccccc1)(c1ccccc1)[C@H](C)CN(C)C [Propoxyphene] |  | Analgesic Activity % Inhibition of Writhing [3]: 50%
